Data from ChEMBL document CHEMBL1201862, “PubChem BioAssay data set” (2004).
Active and inactive are the calls of the source. Rule as the data show it, for most assays here: actives have a measured EC50 and inactives only a lower limit.

Columns and labels:
[1] = C. albicans growth with fluconazole, confirmation, fluorescence, retest (AID 2467); assay type: functional, cell-based
[2] = NIH-3T3 fibroblast cytotoxicity, dose response, cytotoxicity control, cell-based, fluorescence, Alamar Blue, secondary assay (AID 2327); assay type: functional;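 also: NIH-3T3 mouse fibroblasts cultured with fluconazole at 8 µg/mL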
[3] = target: T1, Heat shock factor protein 1 (Mus musculus, UniProt P38532); assay: HSF1 potentiators in luciferase reporter cells, confirmation, cell-based, NIH3T3, luminescence, dose retest (AID 435004); assay type: functional;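 also: stress induced by proteasome inhibitor MG132 added 30 min after compound; luciferase reporter driven by HSF1 response element in NIH3T3 cells; actives raise luminescence as potentiators of the MG132 stress response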
T1 sequence (P38532 whole entry): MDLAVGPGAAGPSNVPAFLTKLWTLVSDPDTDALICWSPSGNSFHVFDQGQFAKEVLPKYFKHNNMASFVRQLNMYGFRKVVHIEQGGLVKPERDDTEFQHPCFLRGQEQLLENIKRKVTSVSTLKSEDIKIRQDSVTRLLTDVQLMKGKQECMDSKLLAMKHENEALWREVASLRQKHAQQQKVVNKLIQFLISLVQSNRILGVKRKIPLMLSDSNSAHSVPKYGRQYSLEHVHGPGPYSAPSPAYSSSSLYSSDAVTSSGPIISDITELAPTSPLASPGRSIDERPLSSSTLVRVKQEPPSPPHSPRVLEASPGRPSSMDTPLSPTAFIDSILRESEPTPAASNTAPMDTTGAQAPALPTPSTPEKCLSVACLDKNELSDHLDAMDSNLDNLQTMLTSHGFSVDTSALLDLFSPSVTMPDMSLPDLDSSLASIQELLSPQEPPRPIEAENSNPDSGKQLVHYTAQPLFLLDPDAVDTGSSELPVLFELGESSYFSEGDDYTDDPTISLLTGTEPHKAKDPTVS

[4] = cytotoxicity toward NIH3T3 fibroblasts, dose response, counter-screen, cell-based, ATP luminescence, mouse fibroblasts (AID 2010); assay type: functional;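 also: cells exposed to compound for about 90 hours before reading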
[5] = inhibitors of intracellular T. cruzi replication, confirmation, NIH3T3 host cells, beta-gal luminescence (AID 2044); assay type: functional, cell-based;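 also: intracellular parasites grown in NIH/3T3 mouse fibroblasts as host cells; luminescent beta-galactosidase reporter signal from transgenic T. cruzi replicating inside host cells; inhibitors lower the luminescence signal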
[6] = target: Glyceraldehyde-3-phosphate dehydrogenase (Homo sapiens, UniProt P04406)
Streptococcus = assay: Group A Streptococcus viability loss, dose response, counter-screen for streptokinase expression inhibitor project, luminescence, BacTiterGlo (AID 1915); assay type: functional, organism-based;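 also: potency for reduction of bacterial viability or growth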
[7] = test system: Streptococcus sp. 'group A'; assay: growth inhibition of control SK(-) GAS strain, dose response, counter-screen for streptokinase expression inhibitor project, luminescence, kanamycin, BacTiterGlo, confirmation (AID 1900); assay type: functional, organism-based
Streptokinase A = target: T2, Streptokinase A (Streptococcus pyogenes serotype M1, UniProt P10520); assay: S. pyogenes streptokinase expression inhibitors, potency, dose response, plasminogen activation absorbance, OD405 (AID 1914); assay type: functional, Streptococcus pyogenes M1 GAS;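 also: secreted streptokinase activity via plasminogen activation per viability signal from cell pellet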
T2 sequence (P10520 whole entry): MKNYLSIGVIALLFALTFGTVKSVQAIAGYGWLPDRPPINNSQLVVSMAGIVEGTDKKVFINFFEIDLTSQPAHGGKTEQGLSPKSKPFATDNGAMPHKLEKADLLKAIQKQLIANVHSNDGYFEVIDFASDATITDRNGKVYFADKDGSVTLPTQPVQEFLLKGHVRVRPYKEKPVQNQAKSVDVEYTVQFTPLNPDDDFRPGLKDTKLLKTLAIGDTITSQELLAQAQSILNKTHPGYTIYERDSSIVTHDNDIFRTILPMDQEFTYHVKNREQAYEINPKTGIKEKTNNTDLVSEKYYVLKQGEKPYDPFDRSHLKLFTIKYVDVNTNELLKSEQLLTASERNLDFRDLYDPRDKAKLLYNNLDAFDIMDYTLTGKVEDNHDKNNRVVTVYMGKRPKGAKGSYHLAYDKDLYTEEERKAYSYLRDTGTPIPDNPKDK

[8] = Luminescence Cell-Based Dose Response HTS to Identify Inhibitors of 5'UTR Stem-Loop Driven Prion Protein mRNA Translation in H4 Neuroglioblastoma Cells. [Related pubchem assays: 1827 (Project Summary), 1813 (Primary HTS)]; assay type: functional
[9] = inhibitors of SNCA 5'UTR-driven reporter translation, confirmation, H4 neuroglioma cells, luminescence (AID 1988); assay type: functional, cell-based
[10] = inhibitors of firefly luciferase expression or activity, dose response, H4 neuroglioma cells, luminescence (AID 1990); assay type: functional, cell-based
Cytochrome P450 3A4 = Cytochrome P450 3A4 (Homo sapiens, UniProt P08684);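 also: CYP3A4 tested as one member of a cytochrome P450 panel screen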
[11] = Shn3 3'UTR reporter inhibitors, dose response, cell-based, Clone20 osteoblasts, firefly luciferase, cherry-picked (AID 624132); assay type: functional;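 also: firefly luciferase luminescence from reporter carrying the Shn3 3'UTR in osteoblasts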
[12] = control 3'UTR Renilla luciferase suppression, dose response, counter-screen for Shn3 inhibitor project, cell-based, Clone20-Shn3RL, cherry-picked (AID 624133); assay type: functional
SN12K1 = assay: cells; assay type: functional; settings: Homo sapiens
Paired box protein Pax-8 = Paired box protein Pax-8 (Homo sapiens, UniProt Q06710); assay: inhibitors of PAX8-driven TPO luciferase reporter, dose response, RMG-I cells, cherry-pick (AID 687027); assay type: functional, cell-based;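 also: luciferase reporter driven by Pax8 target thyroperoxidase promoter measured by SteadyGlo luminescence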
Chain of Paired box protein Pax-8 (Q06710 whole entry): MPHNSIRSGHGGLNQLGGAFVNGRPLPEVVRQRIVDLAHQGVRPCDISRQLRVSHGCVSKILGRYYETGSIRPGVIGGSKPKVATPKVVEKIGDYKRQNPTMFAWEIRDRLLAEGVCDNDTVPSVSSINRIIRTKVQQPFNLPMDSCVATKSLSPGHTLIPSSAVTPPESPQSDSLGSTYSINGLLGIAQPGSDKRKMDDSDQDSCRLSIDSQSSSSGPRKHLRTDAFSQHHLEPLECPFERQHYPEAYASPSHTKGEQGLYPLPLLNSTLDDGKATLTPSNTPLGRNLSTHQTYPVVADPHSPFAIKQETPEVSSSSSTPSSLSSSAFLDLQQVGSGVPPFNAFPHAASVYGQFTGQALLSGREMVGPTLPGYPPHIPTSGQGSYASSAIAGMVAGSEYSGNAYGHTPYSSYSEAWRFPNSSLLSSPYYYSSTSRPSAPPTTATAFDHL

Chain of Cytochrome P450 3A4 (P08684 whole entry): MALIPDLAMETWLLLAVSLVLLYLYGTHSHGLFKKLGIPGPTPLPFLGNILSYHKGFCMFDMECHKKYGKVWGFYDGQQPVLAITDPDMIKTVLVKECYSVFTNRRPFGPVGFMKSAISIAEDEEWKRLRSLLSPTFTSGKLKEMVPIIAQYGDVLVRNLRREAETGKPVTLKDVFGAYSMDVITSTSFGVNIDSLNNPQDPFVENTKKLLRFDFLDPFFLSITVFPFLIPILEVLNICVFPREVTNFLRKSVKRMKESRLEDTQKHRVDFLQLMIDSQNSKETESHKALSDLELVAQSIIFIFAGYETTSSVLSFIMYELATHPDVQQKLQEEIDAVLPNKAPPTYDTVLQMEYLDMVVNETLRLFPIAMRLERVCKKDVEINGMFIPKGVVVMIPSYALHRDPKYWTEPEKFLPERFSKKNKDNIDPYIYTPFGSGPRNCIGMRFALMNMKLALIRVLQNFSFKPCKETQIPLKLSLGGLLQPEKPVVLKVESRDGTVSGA
Chain of Glyceraldehyde-3-phosphate dehydrogenase (P04406 whole entry): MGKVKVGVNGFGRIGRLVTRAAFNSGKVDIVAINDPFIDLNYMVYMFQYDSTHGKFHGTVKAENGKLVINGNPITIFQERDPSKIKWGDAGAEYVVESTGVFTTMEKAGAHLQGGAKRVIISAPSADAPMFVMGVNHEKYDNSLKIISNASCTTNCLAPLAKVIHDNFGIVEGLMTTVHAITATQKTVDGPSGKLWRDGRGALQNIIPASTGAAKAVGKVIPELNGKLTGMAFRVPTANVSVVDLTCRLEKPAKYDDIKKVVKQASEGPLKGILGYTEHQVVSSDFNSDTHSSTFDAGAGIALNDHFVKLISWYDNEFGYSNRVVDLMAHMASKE

NC1=NC(=O)C(Cc2cccc(Cl)c2Cl)S1 (configuration not stated)
EC50 [1]: > 38 µM (not active) | EC50 [2]: 21.6 µM (inconclusive)

C=CCN(C(=O)CCc1ccccc1OC)c1nc(-c2ccc(S(C)(=O)=O)cc2)cs1
EC50 [3]: > 260 µM (inactive) | EC50 [4]: 5.05 µM (active) | EC50 [5]: 1.93 µM (active)

O=C1CC(C(=O)Nc2ccc(O)c(C(=O)O)c2)C(c2ccccc2)O1 (configuration not stated)
IC50 [6]: > 100 µM (not active)

CCCc1nnc(N=C(S)Nc2ccccc2)s1
EC50 [1]: 1.09 µM (active) | EC50 [2]: > 160 µM (inactive)

S=C(Nc1ccc(Cl)cc1)Nc1ccc2c(c1)OCCO2
EC50 [1]: > 38 µM (not active) | EC50 [2]: > 150 µM (inactive)

CN(Cc1ccccc1)C(=O)c1cc(-c2ccc(Br)cc2)on1
EC50 [3]: 110 µM (active)

O=C(CSc1ccc(Cl)cc1)Nc1nnc(-c2ccco2)o1
EC50 [1]: 3.02 µM (active) | EC50 [2]: > 160 µM (inconclusive)

CCC(C)c1ccc(C2C3=C(O)c4ccccc4C3=Nc3nc(N)nc(O)c32)cc1 (configuration not stated)
EC50 (Streptococcus): 8.57 µM (active) | EC50 [7]: 3.11 µM (active) | EC50 (Streptokinase A): > 50 µM (not active)

COc1cccc(-c2nnc(SCc3nc4ccccc4[nH]3)n2N)c1
EC50 [3]: > 260 µM (inactive)

O=C(/C=C/c1ccco1)Nc1nc(-c2ccccn2)cs1
EC50 (Streptococcus): > 150 µM (not active) | EC50 [7]: 18 µM (active) | EC50 (Streptokinase A): > 150 µM (not active) | EC50 [4]: 11.6 µM (active) | EC50 [5]: 4.02 µM (active)

CC(=O)Nc1ncnc2c1c(-c1ccc(Cl)cc1)nn2C(C)(C)C
EC50 [8]: 13.3 µM (active) | EC50 [9]: 10.2 µM (active) | EC50 [10]: 11.4 µM (active) | EC50 [1]: 1.15 µM (active) | EC50 [2]: 36.2 µM (active) | EC50 [4]: 2.66 µM (active) | EC50 [5]: 0.14 µM (active)

Cc1cccc(Sc2nc(-c3ccccc3)ncc2C(=O)O)c1
EC50 [1]: 1.66 µM (active) | EC50 [2]: 104 µM (active)

COc1ccc(C(=O)N2CC3(CC(c4ccc(Cl)cc4)=NO3)C[C@H]2C(=O)NCC(N)=O)cc1 (some centres not stated)
AC50 (Cytochrome P450 3A4): 31.6 µM (inconclusive)

O=C(CN1C(=O)NC(Cc2c[nH]c3ccccc23)C1=O)Nc1cccc(S(=O)(=O)N2CCOCC2)c1 (configuration not stated)
EC50 [3]: > 260 µM (inactive)

O=C(O)c1ccc(-c2nc(-c3ccc(Cl)c(Cl)c3)cs2)cc1
EC50 [1]: 3.35 µM (active) | EC50 (Streptococcus): 6.62 µM (active) | EC50 [2]: > 160 µM (inactive) | EC50 [7]: 3.54 µM (active)

COc1cccc(N2C(=O)C(Cl)=C(N3CCOCC3)C2=O)c1
IC50 [6]: > 50 µM (inconclusive)

C[C@H]1CC(C)(C)C[C@@](OCCN2CCCCC2)(c2ccccc2)C1
AC50 (Cytochrome P450 3A4): 3.16 µM (inconclusive)

CN(C)c1ccc(CNc2ncnc3sccc23)cc1
EC50 [1]: 2.63 µM (active) | EC50 [2]: > 160 µM (inactive)

c1ccc(-c2csc3ncnc(N4CCc5ccccc5C4)c23)cc1
EC50 (Streptococcus): 19.5 µM (active) | EC50 [7]: 5.31 µM (active) | EC50 (Streptokinase A): 4.83 µM (active)

COc1cccc(C(=O)COC(=O)C(C)N2C(=O)C3C4C=CC(C4)C3C2=O)c1 (configuration not stated)
EC50 [3]: > 260 µM (inactive)

Cc1ccc(-n2c(O)cc(=O)nc2SCC(=O)Nc2ccc3c4c(cccc24)CC3)cc1
EC50 (Streptococcus): > 150 µM (not active) | EC50 [7]: 28.4 µM (active) | EC50 (Streptokinase A): > 150 µM (not active)

FC(F)(F)c1cccc(NC(=S)N2CCCC2)c1
EC50 (Streptococcus): > 150 µM (not active) | EC50 [7]: > 150 µM (not active) | EC50 (Streptokinase A): > 150 µM (not active)

O=c1[nH]n2c(C(F)(F)F)cc(C3CC3)nc2c1N=Nc1ccccc1
EC50 [1]: 1.05 µM (active) | EC50 [2]: > 150 µM (inactive)

O=c1c(-c2ccccc2)nc2cnc(Nc3ccccc3)nc2n1C[C@H]1CCCO1
AC50 (Cytochrome P450 3A4): 12.6 µM (inconclusive)

O=C(O)[C@@H]1[C@@H](C(=O)NCc2ccncc2)[C@@H]2C=C[C@@H]1O2
AC50 (Cytochrome P450 3A4): 3.98 µM (inconclusive)

Cc1ccc2c(O)nc(Nc3nc(C)cc(-c4ccccc4)n3)nc2c1
EC50 (Streptococcus): 5.49 µM (active) | EC50 [7]: 7.26 µM (active) | EC50 (Streptokinase A): > 150 µM (not active)

CCn1nc(C)cc1C(=O)Sc1ccc(Cl)cc1Cl
EC50 [3]: 14.9 µM (active)

Cc1ccc(-c2nnc(-c3ccc(NC(=O)c4cccs4)cc3)o2)cc1
AC50 (Cytochrome P450 3A4): 20 µM (inconclusive)

N#Cc1ccccc1-c1cncnc1NCc1cccnc1
AC50 (Cytochrome P450 3A4): 0.2 µM (inconclusive)

COC(=O)c1cn(CCOc2ccc(C)cc2)c2ccccc12
EC50 [3]: > 260 µM (inactive)

CC(=O)N1CCOCCOCCN(C(C)=O)CCOCCOCC1
EC50 [2]: > 150 µM (inconclusive)

CCOC(=O)N1CCN(CC(c2ccccc2)c2ccccc2)CC1
AC50 [11]: 14.1 µM (active) | AC50 [12]: 39.1 µM (active)

Cc1ccc(N2NC(=O)/C(=C/c3c(C)c(C#N)c4nc5ccccc5n4c3O)C2=O)cc1C
IC50 [6]: > 100 µM (not active)

COC(=O)N1CCC2(CCCN(Cc3ccccc3OC)C2)CC1
AC50 (Cytochrome P450 3A4): 6.31 µM (inconclusive)

CC(C)[C@H](NC(N)=O)C(=O)NNC(=O)COc1cccc(C(F)(F)F)c1
EC50 [3]: > 260 µM (inactive)

CCOC(=O)N1CCN(C(=O)c2cnc3n(c2=O)CCS3)CC1
EC50 [3]: > 260 µM (inactive)

CCCCOc1ccc(-c2nc(/C=N/c3nccs3)c(O)o2)cc1
EC50 [3]: > 260 µM (inactive)

CN(C)CCNC(=O)c1cccc2ccc(-c3ccc(O)cc3)nc12
GI50 (SN12K1): 0.637 µM (active)

COc1ccc(CN(C)C[C@H]2Oc3ccc(NC(=O)Nc4ccc5c(c4)OCO5)cc3CC(=O)N([C@H](C)CO)C[C@H]2C)cc1
AC50 (Paired box protein Pax-8): 62.3 µM (active)

C[C@@H]1CCCCO[C@H](CN(C)C(=O)c2ccccc2)[C@@H](C)CN([C@@H](C)CO)C(=O)c2cc(NC(=O)Nc3ccc(C(F)(F)F)cc3)ccc2O1
AC50 (Paired box protein Pax-8): 3.72 µM (active)

C[C@H](CO)N1C[C@H](C)[C@H](CN(C)Cc2ccc3c(c2)OCO3)OCCCC[C@H](C)Oc2ccc(NS(=O)(=O)c3ccc(Cl)cc3)cc2C1=O
AC50 (Paired box protein Pax-8): 9.86 µM (active)

CN1C[C@@H]2[C@H](c3ccccc31)[C@H](CO)N2Cc1ccccc1Cl
AC50 (Paired box protein Pax-8): 50.5 µM (active)

COc1ccc(/N=C2/S/C(=C\c3ccc(C)s3)C(=O)N2CC(C)C)cc1
AC50 (Cytochrome P450 3A4): 5.01 µM (inconclusive)

COc1ccc(C)cc1S(=O)(=O)Nc1cnc2ccccc2c1
IC50 [6]: > 100 µM (not active)
